# Source: PubChem BioAssay AID1963449 (Molecular Pharmacology Branch, DTP, NCI, 2024)
# Tested on: 596521-263-R-J1-PDC complex spheroid growth
# Assay: Anticancer human tumor 596521-263-R-J1-PDC patient-derived soft tissue sarcoma cell line growth inhibition [Asc]
# Conditions: for IC50: curve of first compound; for viability, T/C: stronger effect = lower value
# Procedure, shortened: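 Tumor cells were grown as multicellular spheroids with stromal HUVEC and mesenchymal stem cells and treated singly or in combination. Concentrations fell in half-log steps from the clinical Cmax, or from 10 microM where none was known.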
# 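Note: spheroids exposed to compounds for 7 days.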
structure (smiles),measurement,setting,value
Cc1nc(N2CCC3(CC2)COC(C)C3N)c(CO)nc1Sc1ccnc(N)c1Cl (configuration not stated) + Cc1c(S(C)(=O)=O)c(-c2cc(F)cc(N3CCN(c4ccc(NS(=O)(=O)c5ccc(NC(CCN6CCC(C(=O)OCCCP(=O)(O)O)CC6)CSc6ccccc6)c(S(=O)(=O)C(F)(F)F)c5)cc4)CC3)c2)c(-c2ccc(Cl)cc2)n1C(C)C,IC50,second compound 0.0316 µM,> 3 µM
same,IC50,second compound 0.1 µM,> 3 µM
same,IC50,second compound 0.316 µM,> 3 µM
same,IC50,second compound 1 µM,2.02 µM
same,IC50,second compound 3.16 µM,0.443 µM
same,IC50,second compound 10 µM,0.0977 µM
same,"viability, T/C","second compound 0.0316 µM, first compound 0.00949 µM",85.5%
same,"viability, T/C","second compound 0.0316 µM, first compound 0.03 µM",99.6%
same,"viability, T/C","second compound 0.0316 µM, first compound 0.0949 µM",77.5%
same,"viability, T/C","second compound 0.0316 µM, first compound 0.3 µM",89%
same,"viability, T/C","second compound 0.0316 µM, first compound 0.949 µM",82.9%
same,"viability, T/C","second compound 0.0316 µM, first compound 3 µM",61.9%
same,"viability, T/C","second compound 0.1 µM, first compound 0.00949 µM",87.8%
same,"viability, T/C","second compound 0.1 µM, first compound 0.03 µM",100%
same,"viability, T/C","second compound 0.1 µM, first compound 0.0949 µM",87.2%
same,"viability, T/C","second compound 0.1 µM, first compound 0.3 µM",93.7%
same,"viability, T/C","second compound 0.1 µM, first compound 0.949 µM",84.6%
same,"viability, T/C","second compound 0.1 µM, first compound 3 µM",59.5%
same,"viability, T/C","second compound 0.316 µM, first compound 0.00949 µM",86.4%
same,"viability, T/C","second compound 0.316 µM, first compound 0.03 µM",93.7%
same,"viability, T/C","second compound 0.316 µM, first compound 0.0949 µM",87.2%
same,"viability, T/C","second compound 0.316 µM, first compound 0.3 µM",81.4%
same,"viability, T/C","second compound 0.316 µM, first compound 0.949 µM",68.9%
same,"viability, T/C","second compound 0.316 µM, first compound 3 µM",59.7%
same,"viability, T/C","second compound 1 µM, first compound 0.00949 µM",90.6%
same,"viability, T/C","second compound 1 µM, first compound 0.03 µM",85%
same,"viability, T/C","second compound 1 µM, first compound 0.0949 µM",73.4%
same,"viability, T/C","second compound 1 µM, first compound 0.3 µM",76.7%
same,"viability, T/C","second compound 1 µM, first compound 0.949 µM",64.5%
same,"viability, T/C","second compound 1 µM, first compound 3 µM",42.1%
same,"viability, T/C","second compound 3.16 µM, first compound 0.00949 µM",62.6%
same,"viability, T/C","second compound 3.16 µM, first compound 0.03 µM",63.2%
same,"viability, T/C","second compound 3.16 µM, first compound 0.0949 µM",57.4%
same,"viability, T/C","second compound 3.16 µM, first compound 0.3 µM",50%
same,"viability, T/C","second compound 3.16 µM, first compound 0.949 µM",47.3%
same,"viability, T/C","second compound 3.16 µM, first compound 3 µM",36.5%
same,"viability, T/C","second compound 10 µM, first compound 0.00949 µM",48.5%
same,"viability, T/C","second compound 10 µM, first compound 0.03 µM",54.4%
same,"viability, T/C","second compound 10 µM, first compound 0.0949 µM",52.2%
same,"viability, T/C","second compound 10 µM, first compound 0.3 µM",42.6%
same,"viability, T/C","second compound 10 µM, first compound 0.949 µM",36%
same,"viability, T/C","second compound 10 µM, first compound 3 µM",28.2%
